Measurements as given in US20260262643A1, “HERBICIDAL BENZOXAZINES” (FMC CORPORATION, priority 2022, published 2026).

Tests used:
barnyardgrass [1] = assay: Test C postemergence; type: in vivo, Echinochloa crusgalli; conditions: 10 days, 0 to 100 scale (0 no effect, 100 complete control)
Procedure, shortened: (§1)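 Pre: seeds in loam/sand, directed soil spray. Post: 1–2 leaf plants, 2–10 cm. Cmpd in non-phytotoxic solvent + surfactant. Greenhouse 10 d; visual rating vs untreated, 0 = none, 100 = complete control.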

pigweed, palmer [2] = assay: Test C preemergence; type: in vivo, Amaranthus palmeri
Procedure, shortened: as §1

ducksalad = assay: Test D flooded paddy test; type: in vivo, Heteranthera limosa; conditions: 250 g ai/ha, applied to paddy water, visual rating after 13 to 14 days, scale 0 to 100 (0 no effect, 100 complete control)
Procedure, shortened: (§2)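 Compounds go straight into paddy water over 2-leaf plants in pots flooded to 3 cm. Greenhouse holding lasts 13 to 14 days. Injury is scored by eye against controls from 0 (none) to 100 (complete control).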

sedge, umbrella = assay: Test D flooded paddy test; type: in vivo, Cyperus difformis; conditions: 250 g ai/ha, applied to paddy water, visual rating after 13 to 14 days, scale 0 to 100 (0 no effect, 100 complete control)
Procedure, shortened: as §2

blackgrass [3] = assay: Test C postemergence; type: in vivo, Alopecurus myosuroides; conditions: 10 days, 0 to 100 scale (0 no effect, 100 complete control)
Procedure, shortened: as §1

rice = assay: Test D flooded paddy test; type: in vivo, Oryza sativa; conditions: 250 g ai/ha, applied to paddy water, visual rating after 13 to 14 days, scale 0 to 100 (0 no effect, 100 complete control)
Procedure, shortened: as §2

oat, wild [4] = assay: Test C preemergence; type: in vivo, Avena fatua
Procedure, shortened: as §1

kochia [5] = assay: Test C preemergence; type: in vivo, Bassia scoparia
Procedure, shortened: as §1

green foxtail [6] = assay: Test C preemergence; type: in vivo, Setaria viridis
Procedure, shortened: as §1

green foxtail [7] = assay: Test C postemergence; type: in vivo, Setaria viridis; conditions: 10 days, 0 to 100 scale (0 no effect, 100 complete control)
Procedure, shortened: as §1

galium = assay: Test C postemergence; type: in vivo, Galium aparine; conditions: 10 days, 0 to 100 scale (0 no effect, 100 complete control)
Procedure, shortened: as §1

barnyardgrass [8] = assay: Test C preemergence; type: in vivo, Echinochloa crusgalli
Procedure, shortened: as §1

wheat [9] = assay: Test C preemergence; type: in vivo, Triticum aestivum
Procedure, shortened: as §1

oat, wild [10] = assay: Test C postemergence; type: in vivo, Avena fatua; conditions: 10 days, 0 to 100 scale (0 no effect, 100 complete control)
Procedure, shortened: as §1

ragweed [11] = assay: Test C preemergence; type: in vivo, Ambrosia artemisiifolia
Procedure, shortened: as §1

pigweed, palmer [12] = assay: Test C postemergence; type: in vivo, Amaranthus palmeri; conditions: 10 days, 0 to 100 scale (0 no effect, 100 complete control)
Procedure, shortened: as §1

soybean [13] = assay: Test C preemergence; type: in vivo, Glycine max
Procedure, shortened: as §1

soybean [14] = assay: Test C postemergence; type: in vivo, Glycine max; conditions: Postemergence, 125 g ai/ha; 0 to 100 scale (0 no effect, 100 complete control), 10 days
Procedure, shortened: as §1

barnyardgrass [15] = assay: Test D flooded paddy test; type: in vivo, Echinochloa crus-galli; conditions: 250 g ai/ha, applied to paddy water, visual rating after 13 to 14 days, scale 0 to 100 (0 no effect, 100 complete control)
Procedure, shortened: as §2

horseweed = assay: Test C postemergence; type: in vivo, Erigeron canadensis; conditions: 500 g ai/ha, postemergence, 10 days, 0 to 100 scale (0 no effect, 100 complete control)
Procedure, shortened: as §1

corn [16] = assay: Test C preemergence; type: in vivo, Zea mays
Procedure, shortened: as §1

ryegrass, Italian [17] = assay: Test C preemergence; type: in vivo, Lolium multiflorum
Procedure, shortened: as §1

ragweed [18] = assay: Test C postemergence; type: in vivo, Ambrosia artemisiifolia; conditions: Postemergence, 125 g ai/ha; 0 to 100 scale (0 no effect, 100 complete control), 10 days
Procedure, shortened: as §1

kochia [19] = assay: Test C postemergence; type: in vivo, Bassia scoparia; conditions: 10 days, 0 to 100 scale (0 no effect, 100 complete control)
Procedure, shortened: as §1

ryegrass, Italian [20] = assay: Test C postemergence; type: in vivo, Lolium multiflorum; conditions: Postemergence, 125 g ai/ha; 0 to 100 scale (0 no effect, 100 complete control), 10 days
Procedure, shortened: as §1

blackgrass [21] = assay: Test C preemergence; type: in vivo, Alopecurus myosuroides
Procedure, shortened: as §1

corn [22] = assay: Test C postemergence; type: in vivo, Zea mays; conditions: 10 days, 0 to 100 scale (0 no effect, 100 complete control)
Procedure, shortened: as §1

wheat [23] = assay: Test C postemergence; type: in vivo, Triticum aestivum; conditions: Postemergence, 125 g ai/ha; 0 to 100 scale (0 no effect, 100 complete control), 10 days
Procedure, shortened: as §1

[24] = 500 g ai/ha, preemergence, 0 to 100 scale (0 no effect, 100 complete control)
[25] = Preemergence, 125 g ai/ha, 0 to 100 scale, 0 no effect, 100 complete control

Which results are given for `Cc1ccc(-n2cnc(CS(C)(=N)=O)n2)cc1C(=O)N1C[C@H](C)Oc2c(Cl)cccc21` (some centres unmarked) [Compound 403]?
Plant response rating, Barnyardgrass (barnyardgrass [1]; 500 g ai/ha, postemergence): 70; Plant response rating, Barnyardgrass (barnyardgrass [1]; Postemergence, 125 g ai/ha): 30; Pigweed, Palmer plant response rating (pigweed, palmer [2]; [24]): 100; Plant response rating, Pigweed, Palmer (pigweed, palmer [2]; [25]): 30; Plant response rating, Ducksalad (Flood) (ducksalad): 50; Plant response rating, Sedge, Umbrella (Flood) (sedge, umbrella): 45; Plant response rating, Blackgrass (blackgrass [3]; 500 g ai/ha, postemergence): 80; Plant response rating, Blackgrass (blackgrass [3]; Postemergence, 125 g ai/ha): 20; Plant response rating, Rice (Flood) (rice): 0; Oat, Wild plant response rating (oat, wild [4]; [24]): 40; Plant response rating, Oat, Wild (oat, wild [4]; [25]): 0; Kochia plant response rating (kochia [5]; [24]): 100; Plant response rating, Kochia (kochia [5]; [25]): 60; Foxtail, Green plant response rating (green foxtail [6]; [24]): 100; Plant response rating, Foxtail, Green (green foxtail [6]; [25]): 90; Plant response rating, Foxtail, Green (green foxtail [7]; 500 g ai/ha, postemergence): 90; Plant response rating, Foxtail, Green (green foxtail [7]; Postemergence, 125 g ai/ha): 50; Plant response rating, Galium (galium; 500 g ai/ha, postemergence): 100; Plant response rating, Galium (galium; Postemergence, 125 g ai/ha): 100; Barnyardgrass plant response rating (barnyardgrass [8]; [24]): 70; Plant response rating, Barnyardgrass (barnyardgrass [8]; [25]): 40; Wheat plant response rating (wheat [9]; [24]): 50; Plant response rating, Wheat (wheat [9]; [25]): 0; Plant response rating, Oat, Wild (oat, wild [10]; 500 g ai/ha, postemergence): 90; Plant response rating, Oat, Wild (oat, wild [10]; Postemergence, 125 g ai/ha): 30; Ragweed plant response rating (ragweed [11]; [24]): 80; Plant response rating, Ragweed (ragweed [11]; [25]): 30; Plant response rating, Pigweed, Palmer (pigweed, palmer [12]; 500 g ai/ha, postemergence): 100; Plant response rating, Pigweed, Palmer (pigweed, palmer [12]; Postemergence, 125 g ai/ha): 90; Soybean plant response rating (soybean [13]; [24]): 90; Plant response rating, Soybean (soybean [13]; [25]): 80; Plant response rating, Soybean (soybean [14]): 100; Plant response rating, Barnyardgrass (Flood) (barnyardgrass [15]): 0; Plant response rating, Horseweed (horseweed): 60; Corn plant response rating (corn [16]; [24]): 50; Plant response rating, Corn (corn [16]; [25]): 10; Ryegrass, Italian plant response rating (ryegrass, Italian [17]; [24]): 90; Plant response rating, Ryegrass, Italian (ryegrass, Italian [17]; [25]): 40; Plant response rating, Ragweed (ragweed [18]): 70; Plant response rating, Kochia (kochia [19]; 500 g ai/ha, postemergence): 80; Plant response rating, Kochia (kochia [19]; Postemergence, 125 g ai/ha): 80; Plant response rating, Ryegrass, Italian (ryegrass, Italian [20]): 50; Blackgrass plant response rating (blackgrass [21]; [24]): 80; Plant response rating, Blackgrass (blackgrass [21]; [25]): 60; Plant response rating, Corn (corn [22]; 500 g ai/ha, postemergence): 80; Plant response rating, Corn (corn [22]; Postemergence, 125 g ai/ha): 20; Plant response rating, Wheat (wheat [23]): 20
